According to the supplement of paper PMC11061612:

Experiments:
Test in all cases: Bliss excess, mean over the matrix (fraction); higher = more synergy
HOS (Osteosarcoma) = test system: HOS (Osteosarcoma)
In short: (§1)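 After 24 hours at 37°C and 5% CO2 in 1536-well plates, cells in DMEM/F12 or RPMI plus 10% FBS received two-drug dose matrices for 72 hours. Viability came from CellTiter-Glo 2.0 luminescence and was scaled as inhibition, anchored at 0 by vehicle wells and at 1 by blank wells. Combination Emax is taken as the second-highest inhibition in the matrix, and Bliss excess as the observed combination effect less EA + EB − EA·EB, with EA and EB the single-agent effects.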

[1] = test system: Ramos-2G6-4C10 (Burkitt's Lymphoma)
In short: as §1

[2] = test system: LNCaP-Clone-FGC (Prostate Carcinoma)
In short: as §1

[3] = test system: CaR-1 (Colorectal Carcinoma)
In short: as §1

[4] = test system: KYSE-520 (Esophageal Squamous Cell Carcinoma)
In short: as §1

[5] = test system: COLO-205 (Colorectal Carcinoma)
In short: as §1

[6] = test system: KP-1N (Pancreatic Carcinoma)
In short: as §1

[7] = test system: HT-1376 (Bladder Carcinoma)
In short: as §1

AGS (Gastric Carcinoma) = test system: AGS (Gastric Carcinoma)
In short: as §1

[8] = test system: HCC-78 (Lung Adenocarcinoma)
In short: as §1

[9] = test system: SNU-5 (Gastric Carcinoma)
In short: as §1

[10] = test system: MFE-296 (Endometrial Carcinoma)
In short: as §1

[11] = test system: CCRF-CEM (T-Lymphoblastic Leukemia)
In short: as §1

[12] = test system: TCCSUP (Bladder Carcinoma)
In short: as §1

[13] = test system: B-CPAP (Thyroid Gland Carcinoma)
In short: as §1

[14] = test system: EC-GI-10 (Esophageal Squamous Cell Carcinoma)
In short: as §1

[15] = test system: Daoy (Other Solid Carcinomas)
In short: as §1

[16] = test system: TE-9 (Esophageal Squamous Cell Carcinoma)
In short: as §1

[17] = test system: HO-1-N-1 (Oral Cavity Carcinoma)
In short: as §1

[18] = test system: Calu-3 (Lung Adenocarcinoma)
In short: as §1

| Structure (SMILES) | Bliss excess (HOS (Osteosarcoma)) | Bliss excess [1] | Bliss excess [2] | Bliss excess [3] | Bliss excess [4] | Bliss excess [5] | Bliss excess [6] | Bliss excess [7] | Bliss excess (AGS (Gastric Carcinoma)) | Bliss excess [8] | Bliss excess [9] | Bliss excess [10] | Bliss excess [11] | Bliss excess [12] | Bliss excess [13] | Bliss excess [14] | Bliss excess [15] | Bliss excess [16] | Bliss excess [17] | Bliss excess [18] |
| --- | --- | --- | --- | --- | --- | --- | --- | --- | --- | --- | --- | --- | --- | --- | --- | --- | --- | --- | --- | --- |
| Cc1c2c(nn1C)CSCc1cc(n(C)n1)CSc1cc(c3ccccc3c1)OCCCc1c(C(=O)O)n(C)c3c-2c(Cl)ccc13 [AZD5991] + C1CN(CCC1(C(=O)N[C@@H](CCO)C2=CC=C(C=C2)Cl)N)C3=NC=NC4=C3C=CN4 [Capivasertib] (first compound max 1 µM, 7x7, partner max 3 µM) | -0.0083 | 0.0094 | -0.043 | -0.0295 | -0.0068 | -0.023 | 0.0154 | -0.01 | 0.0013 | 0.0056 | 0.0135 | 0.094 | 0.0618 | 0.0229 | -0.0249 | 0.0589 | 0.0248 | 0.0095 | 0.0001 | 0.0134 |
| Cc1c2c(nn1C)CSCc1cc(n(C)n1)CSc1cc(c3ccccc3c1)OCCCc1c(C(=O)O)n(C)c3c-2c(Cl)ccc13 [AZD5991] + C=CCn1c(=O)c2cnc(Nc3ccc(N4CCN(C)CC4)cc3)nc2n1-c1cccc(C(C)(C)O)n1 [AZD1775] (first compound max 1 µM, partner max 1 µM) | -0.0274 | -0.0413 | 0.0118 | -0.0103 | 0.0434 | -0.0959 | -0.0696 | 0.0345 | -0.0145 | -0.0329 | -0.0291 | -0.0025 | -0.0011 | -0.0021 | -0.053 | 0.0389 | 0.0375 | 0.0286 | -0.0348 | 0.0194 |
| Cc1c2c(nn1C)CSCc1cc(n(C)n1)CSc1cc(c3ccccc3c1)OCCCc1c(C(=O)O)n(C)c3c-2c(Cl)ccc13 [AZD5991] + CC1(C)CCC(CN2CCN(c3ccc(C(=O)NS(=O)(=O)c4ccc(NCC5CCOCC5)c([N+](=O)[O-])c4)c(Oc4cnc5[nH]ccc5c4)c3)CC2)=C(c2ccc(Cl)cc2)C1 [Venetoclax] (first compound max 1 µM, 7x7, partner max 1 µM) | 0.0413 | 0.0339 | -0.0476 | -0.0225 | -0.0306 | -0.0335 | -0.0262 | -0.0465 | 0.0132 | -0.0245 | -0.0127 | -0.002 | 0.0935 | -0.0662 | -0.0306 | -0.0024 | 0.0496 | 0.0041 | 0.0055 | 0.0015 |
| Cc1c2c(nn1C)CSCc1cc(n(C)n1)CSc1cc(c3ccccc3c1)OCCCc1c(C(=O)O)n(C)c3c-2c(Cl)ccc13 [AZD5991] + CCN(CCO)CCCOc1ccc2c(Nc3cc(CC(=O)Nc4cccc(F)c4)[nH]n3)ncnc2c1 [AZD2811] (first compound max 1 µM, 7x7, partner max 1 µM) | 0.007 | 0.141 | 0.0567 | -0.0004 | -0.0272 | 0.0153 | -0.0662 | -0.0077 | 0.0374 | 0.0209 | 0.0306 | 0.0533 | -0.0343 | -0.0288 | 0.0082 | 0.156 | 0.0678 | -0.0235 | 0.0237 | -0.0024 |
| Cc1c2c(nn1C)CSCc1cc(n(C)n1)CSc1cc(c3ccccc3c1)OCCCc1c(C(=O)O)n(C)c3c-2c(Cl)ccc13 [AZD5991] + CN(C)CCCOc1ccc(-c2ccc3ncc4c(c3c2)n(C2CCOCC2)c(=O)n4C)cn1 [AZD0156] (first compound max 1 µM, 7x7, partner max 1 µM) | -0.0026 | 0.0226 | -0.0275 | -0.0271 | 0.0045 | 0.0261 | -0.0132 | 0.0039 | -0.0258 | -0.0059 | 0.0154 | 0.0092 | 0.0467 | -0.0332 | 0.0094 | 0.0487 | 0.0145 | -0.0529 | -0.0044 | 0.0066 |
| Cc1c2c(nn1C)CSCc1cc(n(C)n1)CSc1cc(c3ccccc3c1)OCCCc1c(C(=O)O)n(C)c3c-2c(Cl)ccc13 [AZD5991] + C[C@@H]1COCCN1C2=NC(=NC(=C2)C3(CC3)[S@](=N)(=O)C)C4=C5C=CNC5=NC=C4 [AZD6738] (first compound max 1 µM, 7x7, partner max 10 µM) | 0.0356 | 0.0097 | 0.0123 | -0.0134 | 0.0162 | 0.0116 | 0.0679 | 0.0144 | 0.0629 | 0.0028 | -0.0075 | 0.0723 | 0.0397 | 0.0241 | 0.0032 | 0.061 | 0.0268 | -0.0039 | -0.0134 | 0.0119 |
| Cc1c2c(nn1C)CSCc1cc(n(C)n1)CSc1cc(c3ccccc3c1)OCCCc1c(C(=O)O)n(C)c3c-2c(Cl)ccc13 [AZD5991] + C[C@@H](Nc1cc(F)cc(F)c1)c1cc(C(=O)N(C)C)cc2c(=O)cc(N3CCOCC3)oc12 [AZD8186] (first compound max 1 µM, 7x7, partner max 3 µM) | -0.0169 | -0.0074 | -0.0234 | -0.0187 | -0.0258 | -0.0444 | -0.0533 | -0.0304 | 0.0073 | -0.005 | 0.0155 | 0.0197 | 0.0055 | 0.0237 | -0.0409 | 0.0109 | 0.0289 | -0.0274 | 0.0943 | 0.0441 |
